According to US20040094749A1, “Method for producing a phenothiazine granulate with improved properties” (priority 2000, published 2004):

Assay: Solubility behavior of solid phenothiazine in acrylic acid (method 1b, NIR probe)
Settings: room temperature
Method: Method for determining the solubility behavior of solid phenothiazine of different forms and particle size distributions
Thereafter, at time intervals of from 1 to 5 mm, either a.) a sample of the dispersion was taken and filtered and the phenothiazine content was determined by UV spectroscopy or b.) the phenothiazine content was determined directly by means of an NIR probe which dipped into the dispersion of phenothiazine in acrylic acid (NIRVIS universal spectrometer from Buchi having a transmission probe with 1.5 mm slit width. In order to prevent disturbances by solid particles in the measuring slit, this was closed by means of a metal screen having a mesh size of 0.18 mm).
For this purpose, in each case 1.33 g of the respective sample were added to 66 g of acrylic acid and measurements were carried out at intervals of one minute (Graph. 1).

c1ccc2c(c1)Nc1ccccc1S2 [phenothiazine, 2,3,5,6-dibenzo-1,4-triazine]
maximum solubility of phenothiazine in acrylic acid: about 2.8 % (m/m)
